Source: patent US10351522B2, “Sulfonamide derivative and pharmaceutically acceptable acid addition salt thereof” (UNIVERSITY OF TSUKUBA, priority 2015, dated 2019)
Like-named read-outs stand apart in the source and are kept apart here.

Columns and labels:
[1] = target: T1, human OX2R (Homo sapiens, UniProt O43614); experiment: Agonist activity against OX2R: intracellular calcium (Fura-2AM, FDSS7000) in CHOOX2R cells; format: cell-based; details: relative to orexin-A as full agonist (100%)
T1 construct: expressed in transfected cells; host or cells: CHO (Chinese hamster ovary) cells, line CHOOX2R, co-expressing NFAT-luciferase
T1 sequence (O43614 1-444): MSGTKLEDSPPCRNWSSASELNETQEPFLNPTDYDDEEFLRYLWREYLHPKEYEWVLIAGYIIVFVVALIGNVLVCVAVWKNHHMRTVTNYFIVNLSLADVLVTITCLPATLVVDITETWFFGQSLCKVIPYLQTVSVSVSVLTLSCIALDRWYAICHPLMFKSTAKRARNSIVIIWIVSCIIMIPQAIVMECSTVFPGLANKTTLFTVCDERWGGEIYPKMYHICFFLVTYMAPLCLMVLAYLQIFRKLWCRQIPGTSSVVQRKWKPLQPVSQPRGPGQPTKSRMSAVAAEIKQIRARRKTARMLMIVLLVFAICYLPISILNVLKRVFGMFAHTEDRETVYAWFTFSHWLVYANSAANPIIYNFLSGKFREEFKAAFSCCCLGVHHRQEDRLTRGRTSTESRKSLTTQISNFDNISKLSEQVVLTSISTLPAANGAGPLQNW
Procedure, shortened: (§1)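 CHO cells stably expressing human OX1R or OX2R (plus NFAT-luciferase) were loaded with 5 μM Fura-2AM for 60 min, then given compound at 10^−7 to 10^−5 M final (1% DMSO). Calcium change read as 340/380 nm excitation fluorescence ratio; response expressed as % of orexin-A maximal activity at 10, 1.0 and 0.1 μM.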

[2] = target: T2, human OX1R (Homo sapiens, UniProt O43613); experiment: Agonist activity against OX1R: intracellular calcium (Fura-2AM, FDSS7000) in CHOOX1R cells; format: cell-based; details: relative to orexin-A as full agonist (100%); for Emax at 0.1 µM / Emax at 1 µM / Emax at 10 µM: read-out: Response (%) OX1R
T2 construct: expressed in transfected cells; host or cells: CHO (Chinese hamster ovary) cells, line CHOOX1R, co-expressing NFAT-luciferase
T2 sequence (O43613 1-425): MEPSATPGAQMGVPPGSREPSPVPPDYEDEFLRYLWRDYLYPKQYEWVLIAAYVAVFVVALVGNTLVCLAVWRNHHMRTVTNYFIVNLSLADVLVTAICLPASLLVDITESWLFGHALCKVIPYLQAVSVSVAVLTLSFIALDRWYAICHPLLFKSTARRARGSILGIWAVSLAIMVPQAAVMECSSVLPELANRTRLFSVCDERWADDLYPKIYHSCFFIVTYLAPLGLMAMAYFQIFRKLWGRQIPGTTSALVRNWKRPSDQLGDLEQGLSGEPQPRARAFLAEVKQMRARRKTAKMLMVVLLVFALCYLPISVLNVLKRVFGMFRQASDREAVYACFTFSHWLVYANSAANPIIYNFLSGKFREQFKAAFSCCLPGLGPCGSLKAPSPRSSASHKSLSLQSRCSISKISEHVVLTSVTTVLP
Procedure, shortened: as §1

Compound | Response (%) OX2R ([1]; test compound 0.1 μM) [%] | Response (%) OX2R ([1]; test compound 1.0 μM) [%] | Response (%) OX2R ([1]; test compound 10 μM) [%] | Response (%) OX2R ([1]; 0.1 μM test compound) [%] | Response (%) OX2R ([1]; 1.0 μM test compound) [%] | Response (%) OX2R ([1]; 10 μM test compound) [%] | Response (%) OX1R ([2]; 0.1 μM test compound) [%] | Response (%) OX1R ([2]; 1.0 μM test compound) [%] | Response (%) OX1R ([2]; 10 μM test compound) [%] | Response (%) OX1R ([2]; test compound 0.1 μM) [%] | Response (%) OX1R ([2]; test compound 1.0 μM) [%] | Response (%) OX1R ([2]; test compound 10 μM) [%] | other results
COc1ccc(C(=O)NCc2ccccc2)cc1S(=O)(=O)Nc1cccc(NC(=O)Nc2ccc(N(C)C)cc2)c1 [Example 108, N-benzyl-3-(N-(3-(3-(4-(dimethylamino)phenyl)ureido)phenyl)sulfamoyl)-4-methoxybenzamide] | 6 | 6 | 24 | – | – | – | – | – | – | – | – | – | Emax at 0.1 µM ([2]; test compound 0.1 μM): < 5%; Emax at 1 µM ([2]; test compound 1.0 μM): < 5%; Emax at 10 µM ([2]; test compound 10 μM): < 5%
COc1ccc(-c2cccc(C(=O)N(C)C)c2)cc1S(=O)(=O)Nc1cccc(NC(=O)Nc2ccc(NC(=N)NC(=O)OC(C)(C)C)cc2)c1 [Example 59] | – | – | – | <5 | 18 | 52 | <5 | <5 | <5 | – | – | – | –
CCN(Cc1cccnc1)C(=O)c1ccc(OC)c(S(=O)(=O)Nc2cccc(NC(=O)Nc3ccc(N(C)C)cc3)c2)c1 [Example 111] | 32 | 88 | 100 | – | – | – | – | – | – | <5 | <5 | <5 | –
COc1ccc(-c2cccc(C(=O)N(C)C)c2)cc1S(=O)(=O)Nc1cccc(NC(=O)Nc2ccccc2C)c1 [Example 51] | – | – | – | 93 | 85 | 88 | <5 | 36 | 67 | – | – | – | –
COc1ccc(-c2cccc(C(=O)N(C)C)c2)cc1S(=O)(=O)Nc1cccc(NC(=O)Nc2cccc(Br)c2)c1 [Example 50] | – | – | – | 100 | 94 | 97 | <5 | <5 | <5 | – | – | – | –
CN(C)C(=O)c1cccc(-c2ccc(Cl)c(S(=O)(=O)Nc3cccc(NC(=O)Nc4cccc(N(C)C)c4)c3)c2)c1 [Example 118] | 11 | 36 | 71 | – | – | – | – | – | – | 9 | 8 | 9 | –
COc1ccc(-c2cccc(C(=O)N(C)C)c2)cc1S(=O)(=O)Nc1cccc(N2CCCN(c3cccc(N(C)C)c3)C2=O)c1 [Example 134] | 101 | 76 | 75 | – | – | – | – | – | – | 9 | 13 | 84 | –
COc1ccc(-c2cccc(C(=O)N(C)C)c2)cc1S(=O)(=O)Nc1cccc(Nc2c(OC)c(=O)c2=O)c1 [Example 79, 4′-methoxy-3′-(N-(3-((2-methoxy-3,4-dioxocyclobut-1-en-1-yl)amino)phenyl)sulfamoyl)-N,N-dimethyl-[1,1′-biphenyl]-3-carboxamide] | – | – | – | <5 | <5 | 51 | – | – | – | – | – | – | Emax at 0.1 µM ([2]; 0.1 μM test compound): < 5%; Emax at 1 µM ([2]; 1.0 μM test compound): < 5%; Emax at 10 µM ([2]; 10 μM test compound): < 5%
COc1ccc(-c2cccc(C(=O)N(C)C)c2)cc1S(=O)(=O)Nc1cccc(NC(=O)c2ccncc2)c1 [Example 4] | – | – | – | <5 | <5 | 16 | 10 | 8 | <5 | – | – | – | –
COc1ccc(-c2cccc(C(=O)N(C)C)c2)cc1S(=O)(=O)Nc1cccc(NCC(=O)NCc2cccc(C)c2)c1 [Example 92, 4′-methoxy-N,N-dimethyl-3′-(N-(3-((2-((3-methylbenzyl)amino)-2-oxoethyl)amino)phenyl)sulfamoyl)-[1,1′-biphenyl]-3-carboxamide] | 35 | 95 | 95 | – | – | – | – | – | – | – | – | – | Emax at 0.1 µM ([2]; test compound 0.1 μM): < 5%; Emax at 1 µM ([2]; test compound 1.0 μM): 6%; Emax at 10 µM ([2]; test compound 10 μM): 30%
COc1ccc(-c2cccc(C(=O)N(C)C)c2)cc1S(=O)(=O)Nc1cccc(N=Nc2ccc(O)cc2NC(=O)OC(C)(C)C)c1 [Example 98] | 13 | 11 | 67 | – | – | – | – | – | – | 8 | 8 | 9 | –

More lines, main results first:

Response (%) OX2R ([1]; test compound 0.1 μM) [%] | Response (%) OX2R ([1]; test compound 1.0 μM) [%] | Response (%) OX2R ([1]; test compound 10 μM) [%] | Response (%) OX2R ([1]; 0.1 μM test compound) [%] | Response (%) OX2R ([1]; 1.0 μM test compound) [%] | Response (%) OX2R ([1]; 10 μM test compound) [%] | Response (%) OX1R ([2]; 0.1 μM test compound) [%] | Response (%) OX1R ([2]; 1.0 μM test compound) [%] | Response (%) OX1R ([2]; 10 μM test compound) [%] | Response (%) OX1R ([2]; test compound 0.1 μM) [%] | Response (%) OX1R ([2]; test compound 1.0 μM) [%] | Response (%) OX1R ([2]; test compound 10 μM) [%] | Compound | other results
<5 | 7 | 49 | – | – | – | – | – | – | – | – | – | COc1ccc(C(=O)NCc2ccccc2)cc1S(=O)(=O)Nc1cccc(NC(=O)Nc2cccc(N(C)C)c2)c1 [Example 100, N-benzyl-3-(N-(3-(3-(3-(dimethylamino)phenyl)ureido)phenyl)sulfamoyl)-4-methoxybenzamide] | Emax at 0.1 µM ([2]; test compound 0.1 μM): < 5%; Emax at 1 µM ([2]; test compound 1.0 μM): < 5%; Emax at 10 µM ([2]; test compound 10 μM): < 5%
– | – | – | <5 | 18 | 74 | <5 | <5 | <5 | – | – | – | COc1ccc(-c2cccc(C(=O)N(C)C)c2)cc1S(=O)(=O)Nc1cccc(NC(=O)/C=C/c2ccoc2)c1 [Example 14] | –
<5 | 10 | 56 | – | – | – | – | – | – | <5 | <5 | <5 | COc1ccc(-c2cccc(C(=O)N(C)C)c2)cc1S(=O)(=O)Nc1cccc(NS(=O)(=O)N(C)C)c1 [Example 87] | –
85 | 93 | 92 | – | – | – | – | – | – | <5 | 41 | 81 | COc1ccc(-c2cccc(C(=O)N(C)C)c2)cc1S(=O)(=O)Nc1cccc(N2CCN(c3ccccc3N(C)C)C2=O)c1 [Example 129] | –
– | – | – | <5 | 10 | 72 | <5 | <5 | <5 | – | – | – | COc1ccccc1Nc1cccc(NS(=O)(=O)c2cc(-c3cccc(C(=O)N(C)C)c3)ccc2OC)c1 [Example 31] | –
6 | 6 | 21 | – | – | – | – | – | – | <5 | <5 | 10 | COc1ccc(-c2cccc(C(=O)N(C)C)c2)cc1S(=O)(=O)Nc1cccc(Nc2c(Nc3ccc(C)cc3)c(=O)c2=O)c1 [Example 84] | –
– | – | – | 25 | 49 | 11 | 6 | 6 | <5 | – | – | – | COc1ccc(-c2cccc(C(=O)N(C)C)c2)cc1S(=O)(=O)Nc1cccc(NC(=O)OCc2ccccc2)c1 [Example 73] | –
– | – | – | <5 | 10 | 58 | <5 | <5 | <5 | – | – | – | COc1ccc(C(=O)Nc2cccc(NS(=O)(=O)c3cc(-c4cccc(C(=O)N(C)C)c4)ccc3OC)c2)cc1 [Example 19] | –
– | – | – | 91 | 71 | 61 | <5 | <5 | 10 | – | – | – | COc1ccc(-c2cccc(C(=O)N(C)C)c2)cc1S(=O)(=O)Nc1cccc(NC(=O)Nc2cc(OC)c(OC)c(OC)c2)c1 [Example 54] | –
